Test system: HepaRG
Assay: LDH release cytotoxicity, % of total lysis control; higher = more cytotoxic
Conditions: 48 h
Procedure, shortened: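 Duplicate wells of single-lot HepaRG cells, grown on collagen I-coated 96-well plates, received eight-point half-log series of test chemicals with 100 µM as the top concentration. Exposure lasted 48 h in serum-free induction medium with 0.5% DMSO, while total lysis wells received 0.1% Triton X. Resorufin fluorescence (CytoTox-ONE, Tecan Safire) was used to quantify LDH leaked into 50 µL of spent medium. Values for percent cytotoxicity were normalized to on-plate vehicle and total lysis controls and averaged across the duplicates.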

CCCCC(CC)COC(=O)CC(C(=O)OCC(CC)CCCC)S(=O)(=O)O (stereo unspecified) [Docusate sodium]
Conditions	LDH release cytotoxicity [%]
0.03162 µM	-1.66
0.1 µM	-0.373
0.3162278 µM	-0.361
1 µM	-0.887
3.16228 µM	-0.195
10 µM	-1.39
31.6228 µM	1.52
100 µM	75.5

O=[N+]([O-])c1ccc(O)c([N+](=O)[O-])c1 [2,4-Dinitrophenol]
Conditions	LDH release cytotoxicity [%]
0.03162 µM	-0.273
0.1 µM	-1.23
0.3162278 µM	-0.515
1 µM	-1
3.16228 µM	-0.876
10 µM	0.105
31.6228 µM	0.264
100 µM	0.252

CCc1cnc(C2=NC(C)(C(C)C)C(=O)N2)c(C(=O)O)c1 (stereo unspecified) [Imazethapyr]
Conditions	LDH release cytotoxicity [%]
0.03162 µM	-0.727
0.1 µM	-1.781
0.3162278 µM	-1.13
1 µM	-1.33
3.16228 µM	-1.54
10 µM	-1.13
31.6228 µM	-0.237
100 µM	0.45

O=C1CCCO1 [4-Butyrolactone]
Conditions	LDH release cytotoxicity [%]
0.03162 µM	-0.251
0.1 µM	-0.513
0.3162278 µM	-0.359
1 µM	-0.517
3.16228 µM	-0.65
10 µM	0.21
31.6228 µM	-0.668
100 µM	1.06

CN(C)c1ccccc1 [N,N-Dimethylaniline]
Conditions	LDH release cytotoxicity [%]
0.030516 µM	-0.91
0.0965 µM	-1.79
0.30516 µM	-1.99
0.965 µM	-2.41
3.0515979 µM	-1.849
9.65 µM	-1.69
30.516 µM	-2.11
96.5 µM	-0.103

O=C(O)C1C2CCC(O2)C1C(=O)O (stereo unspecified) [Endothal]
Conditions	LDH release cytotoxicity [%]
0.03162 µM	-1.48
0.1 µM	-1.31
0.3162278 µM	-0.8
1 µM	-0.517
3.16228 µM	-1.16
10 µM	-1
31.6228 µM	1.01
100 µM	21.8

COC(=O)c1ccccc1O [Methyl salicylate]
Conditions	LDH release cytotoxicity [%]
0.03162 µM	-1.8
0.1 µM	-0.746
0.3162278 µM	-0.192
1 µM	-1.39
3.16228 µM	-1.33
10 µM	-0.567
31.6228 µM	-1.23
100 µM	0.0854

O=C(NC1CN2CCC1CC2)c1ccc2c(c1)OCCO2 (stereo unspecified)
Conditions	LDH release cytotoxicity [%]
0.03162 µM	-2.41
0.1 µM	-1.45
0.3162278 µM	-1.86
1 µM	-1.29
3.16228 µM	-1.81
10 µM	-1.38
31.6228 µM	-1.38
100 µM	0.204

O=C(CCl)c1ccccc1 [2-Chloroacetophenone]
Conditions	LDH release cytotoxicity [%]
0.03162 µM	-1
0.1 µM	-0.706
0.3162278 µM	0.0478
1 µM	-0.336
3.16228 µM	-0.414
10 µM	0.0717
31.6228 µM	1.4
100 µM	17.7

O=c1c(-c2ccc(O)cc2)coc2cc(O)cc(O)c12 [Genistein]
Conditions	LDH release cytotoxicity [%]
0.03162 µM	-1.15
0.1 µM	0.689
0.3162278 µM	-2.06
1 µM	-1.48
3.16228 µM	-1.52
10 µM	-1.28
31.6228 µM	-1.5
100 µM	1.33

CC(C)(c1ccccc1)c1ccc(O)cc1 [4-Cumylphenol]
Conditions	LDH release cytotoxicity [%]
0.03162 µM	-1.06
0.1 µM	0.26
0.3162278 µM	-1.3
1 µM	-2.27
3.16228 µM	-0.891
10 µM	-0.313
31.6228 µM	2.91
100 µM	111

CC(Oc1ccc(Cl)cc1Cl)C(=O)O (stereo unspecified) [Dichlorprop]
Conditions	LDH release cytotoxicity [%]
0.03162 µM	-0.461
0.1 µM	-0.49
0.3162278 µM	-0.517
1 µM	0.354
3.16228 µM	0.35
10 µM	0.358
31.6228 µM	0.57
100 µM	1.75

CN(C)C(=O)NC1(c2ccccc2)CCN(CCCC2(c3ccc(Cl)c(Cl)c3)CCCN(C(=O)c3ccccc3)C2)CC1 (stereo unspecified)
Conditions	LDH release cytotoxicity [%]
0.0079057 µM	0.117
0.025 µM	-1.98
0.0790569 µM	-1.74
0.25 µM	-1.65
0.790569 µM	-1.74
2.5 µM	-1.23
7.90569 µM	-0.502
25 µM	77

Cc1ncc(CO)c(CO)c1O [Pyridoxine]
Conditions	LDH release cytotoxicity [%]
0.03162 µM	-3.02
0.1 µM	-2.28
0.3162278 µM	-2.33
1 µM	-2.01
3.16228 µM	-2.69
10 µM	-2.47
31.6228 µM	-2.46
100 µM	1.11

CC(=O)c1ccccc1 [Acetophenone]
Conditions	LDH release cytotoxicity [%]
0.03162 µM	-2.51
0.1 µM	-2.44
0.3162278 µM	-2.72
1 µM	-2
3.16228 µM	-2.1
10 µM	-1.71
31.6228 µM	-1.38
100 µM	-0.356

Cc1cc(Cc2ccc(N)c(C)c2)ccc1N [4,4'-Diamino-3,3'-dimethyldiphenylmethane]
Conditions	LDH release cytotoxicity [%]
0.03162 µM	-1.54
0.1 µM	-0.939
0.3162278 µM	-0.759
1 µM	-1.39
3.16228 µM	-0.662
10 µM	-0.124
31.6228 µM	-0.39
100 µM	-0.749

CNC(=S)S [Metam-sodium hydrate]
Conditions	LDH release cytotoxicity [%]
0.03162 µM	-0.462
0.1 µM	-0.61
0.3162278 µM	-0.991
1 µM	-1.25
3.16228 µM	-0.486
10 µM	-0.405
31.6228 µM	-0.218
100 µM	1.15

CCCCC(CC)CO (stereo unspecified) [2-Ethyl-1-hexanol]
Conditions	LDH release cytotoxicity [%]
0.0320971 µM	-0.547
0.1015 µM	-0.771
0.320971 µM	-0.413
1.015 µM	-0.597
3.2097118 µM	0.185
10.15 µM	0.421
32.0971 µM	0.242
101.5 µM	0.842

CCCOc1nn(C(=O)NS(=O)(=O)c2ccccc2C(=O)OC)c(=O)n1C [Propoxycarbazone-sodium]
Conditions	LDH release cytotoxicity [%]
0.03162 µM	0.284
0.1 µM	0.427
0.3162278 µM	-0.758
1 µM	-0.962
3.16228 µM	-0.435
10 µM	-0.39
31.6228 µM	-0.185
100 µM	0.864

O=[N+]([O-])c1c(Cl)c(Cl)c(Cl)c(Cl)c1Cl [Pentachloronitrobenzene]
Conditions	LDH release cytotoxicity [%]
0.03162 µM	-1.26
0.1 µM	-1.49
0.3162278 µM	-1.32
1 µM	-1.55
3.16228 µM	-0.822
10 µM	0.118
31.6228 µM	0.34
100 µM	2.25

Nc1ccccc1N [1,2-Phenylenediamine]
Conditions	LDH release cytotoxicity [%]
0.03162 µM	-3.74
0.1 µM	-3.27
0.3162278 µM	-2.8
1 µM	-1.88
3.16228 µM	-3.1
10 µM	-2.74
31.6228 µM	-2.23
100 µM	-1.05

[Cl][Hg][Cl] [Mercuric chloride]
Conditions	LDH release cytotoxicity [%]
0.03162 µM	-0.633
0.1 µM	0.0218
0.3162278 µM	-0.338
1 µM	-0.378
3.16228 µM	0.165
10 µM	-0.398
31.6228 µM	-1.52
100 µM	-4.6

O=P1(N(CCCl)CCCl)NCCCO1 (stereo unspecified) [Cyclophosphamide monohydrate]
Conditions	LDH release cytotoxicity [%]
0.03162 µM	-1.01
0.1 µM	-1.29
0.3162278 µM	-1.53
1 µM	-1.41
3.16228 µM	-1.5
10 µM	-0.484
31.6228 µM	-0.76
100 µM	1.23

CCOP(=S)(OCC)SCn1c(=O)oc2cc(Cl)ccc21 [Phosalone]
Conditions	LDH release cytotoxicity [%]
0.03162 µM	-2.44
0.1 µM	-3.01
0.3162278 µM	-2.19
1 µM	-2.28
3.16228 µM	-2.21
10 µM	-2.4
31.6228 µM	-1.63
100 µM	-1.09

CCCN(CCOc1c(Cl)cc(Cl)cc1Cl)C(=O)n1ccnc1 [Prochloraz]
Conditions	LDH release cytotoxicity [%]
0.031623 µM	0.136
0.1 µM	-2.541
0.316228 µM	-3.11
1 µM	-2.56
3.16228 µM	-0.716
10 µM	-0.855
31.6228 µM	13.7
100 µM	64.6

O=C(NO)C1(NS(=O)(=O)c2ccc(Oc3ccc(F)cc3)cc2)CCOCC1
Conditions	LDH release cytotoxicity [%]
0.03162 µM	0.225
0.1 µM	-0.912
0.3162278 µM	-0.649
1 µM	-0.54
3.16228 µM	-0.318
10 µM	-0.00829
31.6228 µM	-1.25
100 µM	10.5

Cc1ccc(C(C)(C)C)c(O)c1 [2-Tert-Butyl-5-methylphenol]
Conditions	LDH release cytotoxicity [%]
0.03162 µM	-2.27
0.1 µM	-3.53
0.3162278 µM	-3.17
1 µM	-3.25
3.16228 µM	-3.05
10 µM	-1.24
31.6228 µM	-1.73
100 µM	1.45

CC(C)(C)c1cccc(C(C)(C)C)c1O [2,6-Di-tert-butylphenol]
Conditions	LDH release cytotoxicity [%]
0.03162 µM	-1.46
0.1 µM	-2.07
0.3162278 µM	-1.81
1 µM	-2.85
3.16228 µM	-2.37
10 µM	-2.01
31.6228 µM	-2.37
100 µM	-2.35

CC(=O)CC(c1ccccc1)C1C(=O)Oc2ccccc2C1=O (stereo unspecified) [Warfarin]
Conditions	LDH release cytotoxicity [%]
0.03162 µM	-1.66
0.1 µM	-1.26
0.3162278 µM	-0.808
1 µM	-0.262
3.16228 µM	-0.866
10 µM	-0.731
31.6228 µM	0.385
100 µM	2.56

Cc1ccccc1Cl [2-Chlorotoluene]
Conditions	LDH release cytotoxicity [%]
0.03162 µM	-1.99
0.1 µM	-1.94
0.3162278 µM	-2.27
1 µM	-1.84
3.16228 µM	-2.6
10 µM	-1.26
31.6228 µM	-0.387
100 µM	0.838

S=C(S)NCCNC(=S)S [Maneb]
Conditions	LDH release cytotoxicity [%]
0.031623 µM	-0.532
0.1 µM	-3.72
0.316228 µM	-2.09
1 µM	-4.15
3.16228 µM	25.2
10 µM	75.5
31.6228 µM	77.2
100 µM	77.7

CC(C)CCCCCCOC(=O)c1ccc(C(=O)OCCCCCCC(C)C)c(C(=O)OCCCCCCC(C)C)c1 [Triisononyl trimellitate]
Conditions	LDH release cytotoxicity [%]
0.031623 µM	-0.391
0.1 µM	-0.474
0.316228 µM	-1.59
1 µM	-2.21
3.16228 µM	-2.67
10 µM	-1.83
31.6228 µM	-0.993
100 µM	0.476

CS(=O)(=O)OCCCCOS(C)(=O)=O [Busulfan]
Conditions	LDH release cytotoxicity [%]
0.03162 µM	-1.48
0.1 µM	-0.871
0.3162278 µM	-1.32
1 µM	-2.08
3.16228 µM	-1.19
10 µM	-0.461
31.6228 µM	0.385
100 µM	0.593

CCOC(=O)C(C)Oc1ccc(Oc2cnc3cc(Cl)ccc3n2)cc1 (stereo unspecified) [Quizalofop-ethyl]
Conditions	LDH release cytotoxicity [%]
0.0272 µM	-0.606
0.086 µM	-0.619
0.271956 µM	-0.991
0.86 µM	-1.42
2.71956 µM	-0.919
8.6 µM	-0.541
27.1956 µM	-0.469
86 µM	-0.0561

Nc1ccc(Nc2ccccc2)cc1 [N-Phenyl-1,4-benzenediamine]
Conditions	LDH release cytotoxicity [%]
0.03162 µM	-1.18
0.1 µM	-0.818
0.3162278 µM	-1.06
1 µM	-0.838
3.16228 µM	-0.438
10 µM	-0.107
31.6228 µM	1.04
100 µM	3.97

COCCOCCOCCOC [Triethylene glycol dimethyl ether]
Conditions	LDH release cytotoxicity [%]
0.03162 µM	-0.0874
0.1 µM	-4.26
0.3162278 µM	-4.61
1 µM	-3.35
3.16228 µM	-3.81
10 µM	-3.38
31.6228 µM	-2.47
100 µM	1.14

O=[N+]([O-])c1cc(C(F)(F)F)c(Cl)c([N+](=O)[O-])c1Nc1ncc(C(F)(F)F)cc1Cl [Fluazinam]
Conditions	LDH release cytotoxicity [%]
0.03162 µM	-1.32
0.1 µM	-1.4
0.3162278 µM	-1.08
1 µM	-1.53
3.16228 µM	-1.12
10 µM	0.179
31.6228 µM	9.87
100 µM	55.8

From the supplement of paper PMC7840683
